US20250367212A1, “PHARMACOTHERAPY FOR OBSESSIVE-COMPULSIVE DISORDER TARGETING DOPAMINE D1 SIGNAL IN STRIATAL STRIOSOMES” (priority 2022, published 2025)
Where two headings read alike, the source gives them in different places.

Key:
[1] = system: patients with blepharospasm; details: for neurological or neuropsychiatric changes during the drug challenge test: in vivo
[2] = system: rodent model using fear conditioning; details: cited from earlier work
[3] = n=7 per group, 8 weeks, single drug

SMILES | neurological or neuropsychiatric changes during the drug challenge test [1] | change in severity of blepharospasm, BSDI, before vs after drug challenge test [1, 3] | change in severity of blepharospasm, JRS, before vs after drug challenge test [1, 3] | change in severity of blepharospasm, VAS, before vs after drug challenge test [1, 3] | change in severity of blepharospasm, mVAS, before vs after drug challenge test [1, 3] | corrected VAS (mVAS), after the drug challenge test ([1]; L-DOPA group, n=7, DOPACOL 1 to 3 tablets/day over 8 weeks, before 141.3±8.7, P<0.05, severity significantly progressed) | fear memory ([2]; administration of D1 receptor agonist, Chen et al., Brain Research 2020) | fear memory ([2]; single injection of D2 receptor antagonist, Ponnusamy et al., Learning & Memory 2005)
CN(C)CCCN1c2ccccc2Sc2ccc(Cl)cc21 [CPZ, chlorpromazine] | No apparent neurological or neuropsychiatric changes | No significant changes in severity | No significant changes in severity | No significant changes in severity | No significant changes in severity |  |  | 
N[C@@H](Cc1ccc(O)c(O)c1)C(=O)O [L-DOPA, L-3,4-dihydroxyphenylalanine] | No apparent neurological or neuropsychiatric changes | no severity progressed | no severity progressed | no severity progressed |  | 178.8±24.3 |  | 
Br.Cc1cccc(C2CN(C)CCc3c2cc(O)c(O)c3Cl)c1 (stereo not drawn) [SKF83959] |  |  |  |  |  |  | long-term loss of fear memory | 
CCN1CCCC1CNC(=O)c1cc(S(N)(=O)=O)ccc1OC (stereo not drawn) [sulpiride] |  |  |  |  |  |  |  | effective in erasing fear memory
